Experimental data: patent EP0917465B1, “ANTIMALARIAL AND ANTI-BABESIOSIS AGENTS AND PHARMACEUTICAL COMPOSITIONS CONTAINING THE SAME AGENTS” (priority 1996, dated 1998)

Experiments:
Plasmodium falciparum = assay: In vitro antimalarial activity, (3H) hypoxanthine incorporation in infected human erythrocytes (Desjardins test); assay type: cell-based; conditions: Plasmodium falciparum, Erythrocyte, concentration inhibiting in vitro parasite growth by 50 %; human erythrocytes infected with Plasmodium falciparum; 24 h contact, test lasts 60 to 70 h; read-out: IC50 exprimée en micromoles
Excerpt: L'activité antipaludéenne des dérivés selon les exemples précédents est testée sur l'humain infesté par Plasmodium falciparum. Le produit à tester est mis en contact avec les érythrocytes humains infectés pendant 24 heures. Un précurseur radioactif d'acides nucléiques l'Hypoxanthine (^3H) est ensuite ajouté. Le précurseur ne s'incorpore que dans les cellules infectées par un parasite en croissance, c'est à dire dans les cellules que la drogue n'aura pas affectées.
L'aptitude ou non à incorporer le précurseur reflète donc la viabilité des cellules impaludées. La durée des tests est de 60 à 70 heures ( test de DESJARDINS R.E. , CANFIELD C.J., HATNES J.D. et CHULAY J.D., Antimicrob. Agents Chemother. 1979, 16, p 710-718 ). Les résultats sont consignés dans le tableau I ci-après, sous forme de IC50 (ou DE50), soit la concentration de produit dans le milieu expérimental capable d'inhiber in vitro la croissance du parasite d'une valeur de 50%.

[1] = Therapeutic index in infected mice: 4-day Peters test activity versus semi-chronic toxicity (DL 50); assay type: in vivo, souris Swiss mâles; conditions: mouse, in vivo, ratio of activity to toxicity under identical conditions, intraperitoneal or subcutaneous, twice a day for 4 days, read-out: Index thérapeutique
Excerpt: Afin d'évaluer l'index thérapeutique des divers produits, on a mesuré l'activité de ceux-ci dans un test in vivo et comparé à la toxicité aiguë chez l'animal . Cette activité est mesurée suivant le test décrit par PETERS W. ( Chemotherapy and Drug résistance in Malaria, 1970). Un composé est administré pendant quatre jours consécutifs à des souris préalablement impaludées par Plasmodium vinckei, petteri, ou chabaudi, ledit composé étant dissous dans une solution de NaCI à 0.9 %. Les préparations sont ainsi administrées par voie intrapéritonéale ou par voie sous-cutanée à des souris Swiss mâles infectées par voie IV, avec Plasmodium petterei ou Plasmodium chabaudi (10^6 cellules infectées ). Le composé est administré deux fois par jour pendant 4 jours consécutifs, la première injection étant pratiquée 2 heures après l'infestation et la deuxième, 10 heures après. La parasitémie est déterminée par un frottis, le jour suivant la fin du traitement. La toxicité est mesurée in vivo selon la même méthode, les animaux ayant reçu dans les conditions d'administration ci-dessus, 2 injections par jour pendant 4 jours ( toxicité semi chronique). Les résultats sont exprimés sous forme de DL 50, soit la dose ayant entraîné la mort de 50% des animaux.
Les résultats des essais sont résumés dans le tableau I ci-après sous forme d'index thérapeutique, soit le rapport de l'activité à la toxicité mésurées dans des conditions identiques comme décrit ci-dessus.

[2] = system: Babesia Bovis, Babesia Canis; assay: In vitro anti-Babesia activity, (3H) hypoxanthine incorporation; assay type: cell-based; conditions: class of ID 50 for (3H) hypoxanthine incorporation; read-out: Activité/ Babesia à 10 millimole
Excerpt: Le procédé de criblage d'activité anti-malaria, basé sur l'incorporation de l'(^3H) Hypoxanthine par le parasite, est utilisé pour tester l'activité anti-métabolique de tels composés sur Babesia Bovis, Babesia Canis. Une relation étroite est trouvée entre le taux d'incorporation de (^3H) Hypoxanthine dans une mesure standard et le pourcentage de cellules parasitées, déterminé par examen microscopique. Cette activité métabolique est quantifiée et évaluée dans le tableau ci-dessous par la cotation +++ pour les molécules affichant dans le test une inhibition de 50 % de l'incorporation de (^3H) Hypoxanthine (ID 50), ces molécules étant à une concentration inférieure ou égale à 0,01 Micromolaire. La cotation est de ++ pour la même activité à une concentration de 0,01 à 0.1 micromolaire et enfin de + pour une concentration inférieure ou égale à 1 Micromolaire.

Compound: C[N+]1(CCCCCCCCCCCCCCCC[N+]2(C)CCCC2CO)CCCC1CO (stereo not drawn) [EXEMPLE 18, 1,1'-(1, 16-hexadecanediyl) bis (2-hydroxymethyl-1-methylpyrrolidinium) dibromure]
- IC50 (Plasmodium falciparum): 1 nM
- selectivity ratio [1]: 22
- IC50 [2]: < 10 nM

Compound: C[N+]1(CCCCCCCCCCCCCCCC[N+]2(C)CCCC(CO)C2)CCCC(CO)C1 (stereo not drawn) [EXEMPLE 20, 1,1'-(1,16-hexadecanediyl) bis (1-methyl-3hydroxy methyl piperidinium) dibromure]
- IC50 (Plasmodium falciparum): 0.3 nM
- selectivity ratio [1]: 17
- IC50 [2]: < 10 nM
